The data set relates to HeLa. The data set is described as follows: Protein binding in human HeLa cells at 1 mM incubated for 10 mins under dark by fluorescence microscopic analysis. In kind it is ADME, cell-based. The note with it: 1000 µM.
Take `CCN1c2ccc3c(ccc(=O)n3C)c2C(=O)CC1(C)C`: the PB result is “Active”.

Take `Cn1c(=O)ccc2c3c(ccc21)NC(C)(C)CC3=O`: the PB result is recorded as “Not Active”. The entry for `CCn1c(=O)ccc2c3c(ccc21)N(C)C(C)(C)CC3=O` is “Active”; for `CN1c2ccc3oc(=O)ccc3c2C(=O)CC1(C)C` it is “Not Active”. The result for `CN1c2ccc3c(ccc(=O)n3C)c2C(=O)CC1(C)C` reads “Active”. As for `CCN1c2ccc3oc(=O)ccc3c2C(=O)CC1(C)C`, the PB result is on record as “Active”.

Turning to `CC1(C)CC(=O)c2c(ccc3oc(=O)ccc23)N1`, the PB result is “Active”. The entry for `CCN1c2ccc3c(ccc(=O)n3CC)c2C(=O)CC1(C)C` is “Active”; for `CCn1c(=O)ccc2c3c(ccc21)NC(C)(C)CC3=O` it is “Active”.
